Test results published in patent US6399353B1, “Papillomavirus: biosynthetic process and assays” (priority 1992, dated 2002).

Key:
CIN-612 cells = experiment: Immunostaining for keratin 10 and filaggrin in CIN-612 raft cultures; assay type: cell-based
[1] = tested on: L1 major capsid protein in CIN-612 rafts; experiment: Immunostaining for L1 major capsid protein in CIN-612 raft cross-sections; assay type: cell-based; conditions: CIN-612 raft cultures, TPA treated; untreated showed no specific nuclear staining
Procedure: (§1) Raft cultures were grown for 16 days then harvested, fixed in paraformaldehyde, embedded in paraffin and sectioned for immunohistostaining.
In vivo expression of viral late genes is only detected in the highly differentiated suprabasal cells of infected tissue (Pfister, et al., 1987). Using antiserum to the HPV 16 L1 major capsid protein (Bedell, et al., 1991), which cross reacts with the L1 major capsid protein of various HPV types (Bedell, et al., 1991), the production of the L1 major capsid protein in the CIN-612 rafts grown with or without TPA treatment was determined. CIN-612 raft cross-sections were examined by immunostaining with the VECTASTAIN Elite ABC Kit (Vector Laboratories. Inc., Burlingame, Calif.) after treatment with antiserum against the major late capsid protein, L1.

HPV 31b = experiment: Virion production in CIN-612 raft cultures (electron microscopy, isopycnic gradient, Southern blot); assay type: cell-based, Human papillomavirus
Procedure: as §1
Raft tissue cross-sections were fixed with glutaraldehyde and stained with uranyl acetate. […] Virions were commonly observed in bilobulated koilocytic and dyskeratotic nuclei in which the nuclear chromatin had condensed at the nuclear envelope. At higher magnification the particles could be seen superimposed on heterochromatin, as is often seen in vivo. These particles are not seen in nuclei of untreated CIN-612 raft cultures. Virions approximately 54 nm in diameter were also prevalent in the stratum corneum of raft cultures. […] Similar results have been obtained with material from five separate experiments with different passages of CIN-612 cells.
Because infectious assays have not yet been developed for HPV, we sought to determine if the structures we observed in nuclei of CIN-612 cells were indeed virions. […]
Eight TPA-treated raft cultures were harvested and virions were isolated following a series of low speed and high speed centrifugations. […] Fractions from the bottom of the gradient through fractions determined positive for HPV 31b DNA by dot blot hybridization were dialyzed and examined by Southern blot hybridization. […]

[2] = CIN-612 rafts, 16 nM TPA, 16 to 24 h every four days, grown 16 days, immunostaining

## CCCCCCCCCCCCCC(=O)O[C@@H]1[C@@H](C)[C@@]2(O)[C@@H](C=C(CO)C[C@]3(O)C(=O)C(C)=C[C@@H]23)[C@@H]2C(C)(C)[C@]12OC(C)=O [TPA, 12-O-tetradecanoylphorbol-13-acetate]
CIN-612 cells; CIN-612 raft cultures, 16 nM TPA in medium, 16 to 24 h every four days
  induction of differentiation: Reproducible induction of differentiation
CIN-612 cells; [2]
  filaggrin expression: strong expression of filaggrin was observed throughout the stratum granulosum and into the stratum corneum
  keratin 10 expression: expressed throughout most of the suprabasal layers, including the stratum corneum
CIN-612 cells; TPA added to media of organotypic (raft) cultures
  expression of physiological markers of keratinocyte differentiation: increased expression
[1]
  nuclear staining with L1 antiserum (major late capsid protein): specific nuclear staining was seen in the stratum granulosum and in the stratum corneum
HPV 31b; TPA added to media of organotypic (raft) cultures, electron microscopy
  production of virions: induced production of virions
HPV 31b; eight TPA-treated raft cultures, CsCl gradient fractions (lanes 7 and 8), estimated from copy number standards
  yield of viral particles: at least 40 million
